Earlier results, collected in patent US7358226B2, “Ultrasonic concentration of drug delivery capsules” (The Regents of the University of California, priority 2003, dated 2008).

Legend:
P-gp = target: T1, P-gp (Mus musculus, UniProt P21447)
T1 construct: host or cells: mouse brain in vivo (endogenous protein)

P-glycoprotein = target: T2, P-glycoprotein (Mus musculus, UniProt P21447)
T2 construct: host or cells: mouse brain in vivo (endogenous protein)

tumor = conditions: paclitaxel alone

T1 sequence (P21447 whole entry): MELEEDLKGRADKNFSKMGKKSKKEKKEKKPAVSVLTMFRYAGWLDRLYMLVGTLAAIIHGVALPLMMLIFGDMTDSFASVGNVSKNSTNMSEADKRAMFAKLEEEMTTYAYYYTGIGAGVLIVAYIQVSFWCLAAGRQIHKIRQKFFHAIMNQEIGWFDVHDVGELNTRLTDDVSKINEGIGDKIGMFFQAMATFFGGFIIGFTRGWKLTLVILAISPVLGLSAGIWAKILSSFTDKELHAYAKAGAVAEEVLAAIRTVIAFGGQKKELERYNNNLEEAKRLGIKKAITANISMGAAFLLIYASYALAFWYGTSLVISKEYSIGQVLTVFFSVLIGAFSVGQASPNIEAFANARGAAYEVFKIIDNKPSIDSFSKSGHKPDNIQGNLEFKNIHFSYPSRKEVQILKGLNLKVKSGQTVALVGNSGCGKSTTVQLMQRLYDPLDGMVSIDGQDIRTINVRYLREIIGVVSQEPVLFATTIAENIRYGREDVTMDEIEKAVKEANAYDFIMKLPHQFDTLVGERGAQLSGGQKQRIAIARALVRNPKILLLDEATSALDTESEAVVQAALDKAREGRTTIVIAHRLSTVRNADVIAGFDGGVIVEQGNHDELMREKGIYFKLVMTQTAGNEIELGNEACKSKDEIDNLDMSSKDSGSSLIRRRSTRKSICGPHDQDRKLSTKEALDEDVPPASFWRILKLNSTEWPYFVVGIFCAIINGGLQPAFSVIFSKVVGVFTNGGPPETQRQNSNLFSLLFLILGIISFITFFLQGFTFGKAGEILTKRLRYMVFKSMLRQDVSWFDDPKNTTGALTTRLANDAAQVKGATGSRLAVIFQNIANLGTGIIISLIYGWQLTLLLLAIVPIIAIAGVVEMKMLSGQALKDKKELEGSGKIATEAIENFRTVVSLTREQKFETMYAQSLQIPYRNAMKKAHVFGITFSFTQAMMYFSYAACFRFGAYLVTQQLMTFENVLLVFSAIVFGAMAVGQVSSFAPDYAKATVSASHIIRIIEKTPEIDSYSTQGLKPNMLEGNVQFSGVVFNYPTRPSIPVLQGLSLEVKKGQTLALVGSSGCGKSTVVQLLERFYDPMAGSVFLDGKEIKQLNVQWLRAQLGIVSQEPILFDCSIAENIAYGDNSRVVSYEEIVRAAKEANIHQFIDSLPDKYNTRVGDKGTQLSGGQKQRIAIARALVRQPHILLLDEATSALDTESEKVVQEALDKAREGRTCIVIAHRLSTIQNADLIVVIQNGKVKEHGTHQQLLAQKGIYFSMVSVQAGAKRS
T2 sequence (P21447 whole entry): as above

For `CC(=O)O[C@H]1C(=O)[C@@]2(C)[C@H]([C@H](OC(=O)c3ccccc3)[C@]3(O)C[C@H](OC(=O)[C@H](O)[C@@H](NC(=O)c4ccc([18F])cc4)c4ccccc4)C(C)=C1C3(C)C)[C@]1(OC(C)=O)CO[C@@H]1C[C@@H]2O` [F18-fluoropaclitaxel], the “increase of F18-fluoropaclitaxel uptake in the brain” value (P-gp; P-gp knockout mice relative to wildtype controls) is listed as 1400%, the clearance (P-gp; mouse, in vivo) is listed as “rapid clearance” and the tissue uptake (P-gp; mouse, in vivo) is listed as “high uptake in many tissues”.

For `COc1cc2c(cc1OC)CN(CCc1ccc(NC(=O)c3cc(OC)c(OC)cc3NC(=O)c3cnc4ccccc4c3)cc1)CC2` [XR9576], the “increase of uptake of F18-fluoropaclitaxel” value (P-gp; preadministration of XR9576, increase was not significant) is listed as 20%.

In the case of `CC(=O)O[C@H]1C(=O)[C@@]2(C)[C@H]([C@H](OC(=O)c3ccccc3)[C@]3(O)C[C@H](OC(=O)[C@H](O)[C@@H](NC(=O)c4ccccc4)c4ccccc4)C(C)=C1C3(C)C)[C@]1(OC(C)=O)CO[C@@H]1C[C@@H]2O` [paclitaxel, Paclitaxel], the “penetration of paclitaxel into the brain” value (P-glycoprotein; P-glycoprotein knockout mice) is given as “markedly increased” and the “effect on tumor volume” value (tumor) is given as “did not affect tumor volume”.

For `C/C=C/C[C@@H](C)C(=O)[C@H]1C(=O)N[C@@H](C(C)C)C(=O)N(C)CC(=O)N(C)[C@@H](CC(C)C)C(=O)N[C@@H](C(C)C)C(=O)N(C)[C@@H](CC(C)C)C(=O)N[C@@H](C)C(=O)N[C@H](C)C(=O)N(C)[C@@H](CC(C)C)C(=O)N(C)[C@@H](CC(C)C)C(=O)N(C)[C@@H](C(C)C)C(=O)N1C` [Valspodar], the “brain concentrations of paclitaxel” value (P-glycoprotein; Valspodar co-administered with paclitaxel) is given as “significantly increase”.
